“And” between values parts separate entries of the source, which are not always exact repeats. Equal values may be shown once.
Experiments:
human β2-AR = target: T1, human β2-AR (Homo sapiens, UniProt P07550, E27Q/G16R); assay: [3H]DHA competition radioligand binding on HEK293T membranes
T1 construct: Human β2AR (GenBank: NP_000015.1) in pcDNA3.1+ expression plasmid; expressed in transfected cells; host or cells: HEK293T cells, transient transfection with PEI; membranes prepared

β2-AR = β2-AR (Homo sapiens, UniProt P07550); assay: FRET-based EPAC cAMP assay, ligand stimulation (agonist mode); type: cell-based
β2-AR, sequence (P07550 whole entry): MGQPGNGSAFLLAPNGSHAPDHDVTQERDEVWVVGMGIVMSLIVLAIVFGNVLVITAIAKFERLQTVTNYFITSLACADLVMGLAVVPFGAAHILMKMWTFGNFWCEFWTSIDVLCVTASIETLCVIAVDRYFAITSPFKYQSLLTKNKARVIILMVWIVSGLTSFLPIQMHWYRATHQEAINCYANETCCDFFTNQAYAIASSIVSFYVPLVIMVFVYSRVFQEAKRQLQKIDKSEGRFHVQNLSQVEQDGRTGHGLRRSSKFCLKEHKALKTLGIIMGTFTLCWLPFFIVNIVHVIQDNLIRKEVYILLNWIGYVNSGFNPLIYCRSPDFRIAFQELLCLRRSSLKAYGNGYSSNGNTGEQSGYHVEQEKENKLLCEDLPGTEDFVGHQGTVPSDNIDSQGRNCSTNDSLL

[1] = Photostationary state composition by LC-MS at isosbestic point; conditions: for PSS cis (% cis) / PSS trans (% trans): DMSO 10 mM, LC-MS at isosbestic point; for PSS cis (% cis): after 360 ± 20 nm (12d: 520 ± 12 nm); for PSS trans (% trans): after 434 ± 9 nm from PSS cis
[2] = UV/vis absorption spectra before and after illumination; type: physicochemical; conditions: 25 μM in HBSS buffer containing 1% DMSO; for λmax (nm) PSS cis: n−π* transition, approximated from PSS cis composition; for λmax (nm) trans: π–π* transition of trans isomer
[3] = Reversible isomerization cycles under alternating illumination (photobleaching resistance); conditions: 25 μM in HBSS buffer containing 1% DMSO; 365 ± 11 nm / 440 ± 25 nm
[4] = Photostationary state composition by 1H NMR; type: physicochemical
Source text: However, it has been computationally studied by Konrad et al. who calculated the n−π* band to be 444.5 nm for the cis isomer of the parent compound in the gas phase. […] The difference between calculated and experimental value could conceivably be the result of the buffer solvent not having been included in the calculations and/or the suboptimal trans to cis conversion at PSS cis (PSS cis = 66.3%). […] The PSS cis curve is slightly […], potentially enabling trans–cis isomerization at longer wavelengths. […] However, not unexpectedly given the low absorption at 560 nm, the illumination time required is much longer (hours versus 20 min with 360 nm illumination). Such longer illumination times would only be acceptable if the pharmacological differences between the isomers were much more pronounced, not requiring full conversions to PSS cis . […] The PSS cis and PSS trans values by LC–MS analysis (Figures B and S5) at the isosbestic point (376 nm) are 66.3% and 72.5%, respectively. These are similar to the 62.4% and 78.7% values obtained from ^1H NMR analysis, in which the well-resolved signal of the benzylic CH group allowed quantification of the PSS values (Figures C and S7).

T1 sequence (P07550 whole entry G16R/E27Q): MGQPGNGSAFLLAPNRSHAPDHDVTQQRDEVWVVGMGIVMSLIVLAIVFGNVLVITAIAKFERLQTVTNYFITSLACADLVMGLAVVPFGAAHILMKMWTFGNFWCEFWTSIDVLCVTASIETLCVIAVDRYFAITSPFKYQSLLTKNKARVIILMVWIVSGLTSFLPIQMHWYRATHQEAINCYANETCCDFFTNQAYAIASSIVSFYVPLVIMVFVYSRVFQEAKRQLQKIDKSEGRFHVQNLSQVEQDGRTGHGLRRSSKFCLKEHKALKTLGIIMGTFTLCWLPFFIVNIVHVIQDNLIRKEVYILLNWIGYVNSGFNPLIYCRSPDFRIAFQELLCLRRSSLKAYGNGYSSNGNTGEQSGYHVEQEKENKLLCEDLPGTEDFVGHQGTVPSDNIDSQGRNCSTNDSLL

Row | SMILES | Ki (human β2-AR) [nM] | pEC50 trans (β2-AR) | α trans, intrinsic activity Emax (ligand)/Emax (isoprenaline) (β2-AR) | PSS cis (% cis) [1] | PSS trans (% trans) [1] | λmax (nm) PSS cis [2] [nm] | λmax (nm) trans [2] [nm] | resistance to photobleaching, dynamic isomerization cycles [3] | PSS cis value with 560 nm light ([1]; 560 nm illumination, LC-MS) [%] | PSS cis value from 1H NMR analysis ([4]; 10 mM in DMSO-d6, 360 ± 20 nm) [%] | PSS trans value from 1H NMR analysis ([4]; 10 mM in DMSO-d6, 434 ± 9 nm after PSS cis) [%]
1 | CC(C)(C)NCC(O)c1cc(Cl)c(N)c(C#N)c1 (stereo not drawn) [Compound 18, 2-Amino-5-(2-(tert-butylamino)-1-hydroxyethyl)-3-chlorobenzonitrile] | 20 | 9.0 ± 0.0 | 0.8 ± 0.0 |  |  |  |  |  |  |  | 
2 | CC(C)(C)NCC(O)c1ccc(/N=N/c2ccccc2)c(Cl)c1 (stereo not drawn) [Compound 12c, (E)-2-(tert-Butylamino)-1-(3-chloro-4-(phenyldiazenyl)phenyl)-ethan-1-ol] |  |  |  | 97.6 ± 0.1% | 65.5 ± 0.2% | 428 | 328 |  |  |  | 
3 | CC(C)(C)NCC(O)c1cc(Cl)c(/N=N/c2ccccc2)c(Cl)c1 (stereo not drawn) [Compound 12b, (E)-2-(tert-Butylamino)-1-(3,5-dichloro-4-(phenyldiazenyl)phenyl)-ethan-1-ol] |  |  |  | 66.3% and 66.3 ± 0.9% | 72.5% and 72.5 ± 0.1% | 417 | 306 | at least 10 cycles | 74.9 | 62.4 | 78.7
4 | CC(C)(C)NCC(O)c1ccc(/N=N/c2ccccc2)cc1 (stereo not drawn) [Compound 12a, (E)-2-(tert-Butylamino)-1-(4-(phenyldiazenyl)-phenyl)-ethan-1-ol] |  |  |  | 94.6 ± 0.5% | 71.8 ± 0.2% | 425 | 323 |  |  |  | 
5 | CC(C)(C)NCC(O)c1cc(Cl)c(/N=N/c2c(Cl)cccc2Cl)c(Cl)c1 (stereo not drawn) [Compound 12d, (E)-2-(tert-Butylamino)-1-(3,5-dichloro-4-((2,6-dichlorophenyl)-diazenyl)-phenyl)-ethan-1-ol] |  |  |  | 38.5 ± 0.5% | 94.1 ± 0.3% | 441 | 293 |  |  |  | 
6 | CC(C)(C)NCC(O)c1cc(Cl)c(/N=N/c2ccccc2)c(C#N)c1 (stereo not drawn) [Compound 12e, (E)-5-(2-(tert-Butylamino)-1-hydroxyethyl)-3-chloro-2-(phenyldiazenyl)-benzonitrile] |  |  |  | 88.7 ± 0.8% | 82.0 ± 0.4% | 426 | 331 |  |  |  | 

— PMC12225454, “Photo-clenbuterol: Optical Control of β2‑Adrenergic Receptor Signaling by Photoswitchable Ligand Efficacy” (Journal of Medicinal Chemistry, 2025)
